Molecules are shown by their SMILES.

Results on 8 compounds are retold here after patent US8058263B2, “Substituted 2-phenyl-pyridine derivatives” (Actelion Pharmaceuticals Ltd, priority 2008, dated 2011).

This assay addresses T1, human P2Y12 receptor (Homo sapiens, UniProt Q9H244).
T1 construct: expressed in transfected cells; host or cells: Chinese Hamster Ovary (CHO) cells
As to the kind of experiment: P2Y12 receptor binding assay. The conditions noted are these: CHO cells with recombinant expression of the human P2Y12 receptor; tritium-labeled 2-methyl-S-ADP; 2 hours at RT. Here is the method: P2Y12 Receptor Binding Assay
Chinese Hamster Ovary (CHO) cells with recombinant expression of the human P2Y12 receptor were cultured in 24 well cell-culture plates. Cells were washed three times with binding buffer (50 mM Tris pH 7.4, 100 mM NaCl, 1 mM EDTA, 0.5% BSA). The cells were then incubated with 0.5 mL per well binding buffer containing tritium-labeled 2-methyl-thio-adenosine 5′-diphosphate (2-methyl-S-ADP) (between 100,000 and 300,000 dpm per well) and various concentrations of test compounds. After incubation at RT for 2 hours, cells were washed three times with binding buffer. Then, cells were solubilized by addition of 0.5 mL solubilization buffer (SDS, NaOH, EDTA). The content of each well was then transferred into beta-counter vials and 2.0 ml of Ultima Gold Scintillation liquid was added.

T1 sequence (Q9H244 whole entry): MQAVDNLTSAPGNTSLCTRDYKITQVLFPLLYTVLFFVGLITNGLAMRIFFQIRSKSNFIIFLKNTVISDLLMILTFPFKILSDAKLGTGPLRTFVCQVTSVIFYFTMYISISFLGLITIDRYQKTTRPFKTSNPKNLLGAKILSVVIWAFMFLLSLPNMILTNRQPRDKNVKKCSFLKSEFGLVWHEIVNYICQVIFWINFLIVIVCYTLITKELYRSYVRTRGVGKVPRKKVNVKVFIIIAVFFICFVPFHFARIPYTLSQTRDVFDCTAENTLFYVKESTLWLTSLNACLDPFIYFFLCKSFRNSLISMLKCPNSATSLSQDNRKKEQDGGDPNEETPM

Take `CCCCOC(=O)N1CCN(C(=O)[C@H](CP(=O)(O)O)NC(=O)c2cc(OCCOC)cc(-c3ccccc3)n2)CC1` [Example 36, 4-((R)-2-{[4-(2-methoxy-ethoxy)-6-phenyl-pyridine-2-carbonyl]-amino}-3-phosphono-propionyl)-piperazine-1-carboxylic acid butyl ester]: the IC50 – broadly, the concentration at which inhibition is half-maximal – was determined as 2 nM.
Turning to `CCCCOC(=O)N1CCN(C(=O)[C@H](CP(=O)(OCOC(C)=O)OCOC(C)=O)NC(=O)c2cc(N3CC[C@H](OC)C3)cc(-c3ccccc3)n2)CC1` [Example 39, 4-((R)-3-(Bis-acetoxymethoxy-phosphoryl)-2-{[4-((S)-3-methoxy-pyrrolidin-1-yl)-6-phenyl-pyridine-2-carbonyl]-amino}-propionyl)-piperazine-1-carboxylic acid butyl ester], the concentration for half-maximal inhibition (IC50) was 3 nM.
Turning to `CCOC(=O)N1CCN(C(=O)[C@H](Cc2ccc(P(=O)(O)O)cc2)NC(=O)c2cc(N3CC[C@H](OC)C3)cc(-c3ccccc3)n2)CC1` [Example 24, 4-[(S)-2-{[4-((S)-3-methoxy-pyrrolidin-1-yl)-6-phenyl-pyridine-2-carbonyl]-amino}-3-(4-phosphono-phenyl)-propionyl]-piperazine-1-carboxylic acid ethyl ester], the IC50 was 1 nM.
As for `CCCCOC(=O)N1CCN(C(=O)[C@H](CP(=O)(O)O)NC(=O)c2cc(NC3CC3)cc(-c3ccccc3)n2)CC1` [Example 31, 4-{(R)-2-[(4-cyclopropylamino-6-phenyl-pyridine-2-carbonyl)-amino]-3-phosphono-propionyl}-piperazine-1-carboxylic acid butyl ester], the figure is 4 nM; as for `CCCCOC(=O)N1CCN(C(=O)[C@H](CP(=O)(O)O)NC(=O)c2cc([C@H]3C[C@@H]3CO)cc(-c3ccccc3)n2)CC1` [Example 20, 4-((R)-2-{[4-((1S,2S)-2-hydroxymethyl-cyclopropyl)-6-phenyl-pyridine-2-carbonyl]-amino}-3-phosphono-propionyl)-piperazine-1-carboxylic acid butyl ester], 5 nM.
For `CCCCOC(=O)N1CCN(C(=O)[C@H](CP(=O)(O)O)NC(=O)c2cc(-c3ccccc3)cc(-c3ccc(F)cc3)n2)CC1` [Example 17, 4-((R)-2-{[6-(4-fluoro-phenyl)-4-phenyl-pyridine-2-carbonyl]-amino}-3-phosphono-propionyl)-piperazine-1-carboxylic acid butyl ester], the concentration for half-maximal inhibition (IC50) was found to be 19 nM.
Turning to `CCCCOC(=O)N1CCN(C(=O)C(NC(=O)c2cc(N3CC[C@H](OC)C3)cc(-c3ccccc3)n2)P(=O)(O)O)CC1` (stereo partly drawn) [Example 12, 4-(-2-{[4-((S)-3-methoxy-pyrrolidin-1-yl)-6-phenyl-pyridine-2-carbonyl]-amino}-2-phosphono-acetyl)-piperazine-1-carboxylic acid butyl ester], the IC50 is 186 nM.
`CCCCOC(=O)N1CCN(C(=O)[C@@H](CCCP(=O)(O)O)NC(=O)c2cc(N3CC[C@H](OC)C3)cc(-c3ccccc3)n2)CC1` [Example 14, 4-((R)-2-{[4-((S)-3-methoxy-pyrrolidin-1-yl)-6-phenyl-pyridine-2-carbonyl]-amino}-5-phosphono-pentanoyl)-piperazine-1-carboxylic acid butyl ester]: the 50% inhibitory concentration (IC50) is 30 nM.
